Legend:
[1] = tested on: PAECs; experiment: BrdU proliferation assay in PAECs; assay type: cell-based, human
Procedure: BrdU growth assay: Cell proliferation was assayed relative to day 0 using a BrdU Cell Proliferation Assay Kit (#6813, Cell Signaling) according to the manufacturer's protocol after incubation for 2 h with BrdU.

[2] = tested on: hypoxic IL-6 Tg mice; experiment: Hypoxic IL-6 transgenic pulmonary arterial hypertension mouse model; assay type: in vivo, IL-6 transgenic C57BL/6 mice
Procedure: Following euthanasia, right ventricle/[left ventricle+septum]
Pulmonary-specific IL-6 transgenic mice (C57BL/6 background) were described previously (Steiner M K et al. Circ Res. 2009, 104, 236-244, 228p following 244). These mice were bred in house, and 12 week old male transgenic mice vs. control littermates were compared. Mice were injected i.p. every 3 days with vehicle control (2.5% DMSO) vs. BRD2889 (5 mg/kg vs. 10 mg/kg), followed by exposure to normobaric hypoxia (10% O2; OxyCycler chamber, Biospherix Ltd, Redfield, NY) for 14 days, as described (Steiner M K et al. Circ Res. 2009, 104, 236-244, 228p following 244).
Rodent echocardiography: Echocardiography was performed using a 15-45 MHz transthoracic transducer and a Visual Sonics Vevo 3100 system (Fujifilm). Inhaled isoflurane anesthesia was used at 2% in 100% O2 during positioning and hair removal and then decreased to isoflurane 0.8% during imaging.

[3] = molecular target: T1, glutathione S-transferase (GST) activity / GSTP1 (Homo sapiens, UniProt P09211); experiment: GST activity in PAECs; assay type: cell-based
T1 construct: endogenous in cells; host or cells: primary human PAECs (hypoxia or IL-6/sIL-6R+hypoxia)
T1 sequence (P09211 2-210 limits assumed): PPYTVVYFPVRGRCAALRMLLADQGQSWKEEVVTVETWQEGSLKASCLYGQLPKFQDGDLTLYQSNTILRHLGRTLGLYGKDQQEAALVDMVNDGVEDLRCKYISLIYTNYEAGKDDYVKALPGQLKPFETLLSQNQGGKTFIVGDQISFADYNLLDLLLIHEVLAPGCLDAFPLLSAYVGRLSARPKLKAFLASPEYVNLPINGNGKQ
Procedure: (§1) For hypoxia exposure, cells were plated in 6-well cell culture plates at 1×10^5 cells/well, grown for 24 hr and placed into a normobaric hypoxia chamber (1% O2) for 24 h under specific treatment conditions. Namely, for I-BET and siLGALS8 exposures, cells were either pre-treated with I-BET/vehicle control (VC) or transfected with siLgals8/Scr for 24 h. Then, they were cultured in basal media at 1% 02. After 24 h, caspase activity and mitochondrial superoxide levels were quantified. To detect activation status of pSTAT1/STAT1 by immunoblot, cells were exposed to 8 h of hypoxia.
(§2) In IL-6/sIL-6R+hypoxia experiments, a human recombinant IL-6/IL-6R alpha protein chimera (25 ng/ml, Millipore) was administered at 70-80% confluency for 48 h in complete media along with vehicle control (DMSO, Sigma-41639). BRD2889 (1 uM) vs. vehicle control were added, as indicated, and placed into a hypoxia chamber for 24 h. The hypoxia chamber (modular incubator chamber) was obtained from Billups-Rothenberg Inc. (Del Mar, Calif) and placed in regulated CO2 incubator at 37° C.

[4] = tested on: glutathionylated ISCU; experiment: ISCU glutathionylation by immunoprecipitation and immunoblot in PAECs; assay type: cell-based, human; details: hypoxic PAECs, BRD2889 1 mM, 24 h
Procedure: Protein stability assay: The proteasome inhibitor MG132 (M7449, Sigma) was stored at −20° C. at a concentration of 10 mM diluted in dimethyl sulfoxide (DMSO). PAECs were exposed to MG132 ([…]) vs. DMSO vehicle control for 2 hr under hypoxia, prior to harvesting of cellular lysate for immunoblotting.
Immunoblot and densitometry: Cells were lysed in RIPA buffer (Sigma) along with 1× protease inhibitor cocktail (Sigma). Protein lysate was resolved by gradient 4%-15% SDS-PAGE gels and transferred onto a 0.2 μm PVDF membrane (Bio-Rad). Membranes were blocked in 5% non-fat milk in 1×PBST buffer for one hour at room temperature. Later, they were incubated in the presence of the primary antibody overnight at 4° C. and then appropriate HRP-conjugated secondary antibodies (Life Technologies). […] The images were later quantified using AlphaEaseFC software (Alpha Innotech).
Immunoprecipitation: PAECs were transfected with the indicated combinations of siRNAs by Lipofectamine 2000 (Thermo Fisher Scientific) according to the manufacturer's instructions and/or treated with BRD2889 ([…], 24 h). […] After extensive washing, the immunoprecipitated proteins were analyzed by immunoblotting with the indicated antibodies.

[5] = molecular target: glutathione S-transferase pi 1 (GSTP1) (Homo sapiens, UniProt P09211); details: literature report; cited from earlier work
Sequence of glutathione S-transferase pi 1 (GSTP1) (P09211 whole entry, species assumed): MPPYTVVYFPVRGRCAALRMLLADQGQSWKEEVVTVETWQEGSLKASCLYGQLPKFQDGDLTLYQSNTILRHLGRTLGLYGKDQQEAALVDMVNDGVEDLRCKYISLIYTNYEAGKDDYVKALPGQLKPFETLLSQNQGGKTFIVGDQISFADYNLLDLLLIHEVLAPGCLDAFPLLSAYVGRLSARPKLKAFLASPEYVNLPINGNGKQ

[6] = tested on: PAECs; experiment: Apoptosis by caspase-3/7 activity in PAECs; assay type: cell-based, human
Text: Cell culture: Primary human pulmonary artery endothelial cells (PAECs) and human pulmonary artery smooth muscle cells (PASMCs) were purchased from Lonza (302-05A, CC-2581). Of note, the same two male donors were the source of all PAECs in the experiments shown. Two additional male donors were the source for all PASMCs in the experiments shown. Cells from these and any donors were characterized by flow cytometry for consistent expression of cell surface markers and by RNA (RT-qPCR) analysis of endothelial and smooth muscle gene expression. PAECs were cultured in EGM-2 media (CC-3121) along with supplements (CC-4133), and PASMCs were cultured in SmGM-2 culture media (Lonza, CC-3182) at 5% CO2 in a humidified incubator.
Human recombinant galectin-8 (1305-GA-050) was purchased from R&D Systems and was used at a working concentration of 30 nM.
as §1, §2
Cellular apoptosis: Caspase-3/7 activity was quantified using the Caspase-Glo 3/7 Assay (Promega), according to manufacturer's instructions. Caspase-3/7 activity was normalized to total protein content determined by BCA method (Thermo Fisher Scientific).

[7] = hypoxic PAECs with siRNA knockdown of ISCU
[8] = BRD2889 10 mg/kg vs vehicle, 10 days of treatment
[9] = BRD2889 5 and 10 mg/kg IP every three days

COc1ccc(C#CC2CCCN(C(=O)/C=C/c3cc(OC)c(OC)c(OC)c3)C2=O)cc1 (stereo not drawn) [BRD2889]
proliferation (BrdU) ([1]; PAECs, IL-6/sIL-6R + hypoxia): increased proliferation | proliferation (BrdU incorporation) ([1]; hypoxic PAECs): reversed the decrease | hypoxia-induced decrease in proliferation [1, 7]: did not reverse | lung total GST enzyme activity ([2]; BRD2889 5 mg/kg (low) and 10 mg/kg (high) IP every three days, 14 days hypoxia): dose-dependent reduction | heart rate [2, 8]: No differences | left ventricular function (fractional shortening, ejection fraction, PW thickness) [2, 8]: No differences | Fulton index [2, 9]: dose-dependent reduction | ISCU in arterioles, particularly CD31+ endothelium (in situ staining) [2, 9]: rescued | RVSP [2, 9]: dose-dependent reduction | arteriolar muscularization [2, 9]: reduced | cleaved caspase-3 (CC-3) in whole vessels [2, 9]: decreased | GSTP1 (GST) activity ([3]; PAECs, IL-6/sIL-6R + hypoxia, BRD2889 1 uM): reversed the increase | GST enzyme activity ([3]; hypoxic PAECs): reduced the hypoxic increase | ISCU glutathionylation (α-GSH immunoblot after α-ISCU pulldown) [4]: converse reduction of glutathionylation | inhibition of GSTP1 [5]: known to inhibit | apoptosis (caspase 3/7) ([6]; PAECs, IL-6/sIL-6R + hypoxia): reduced apoptosis | apoptosis (caspase 3/7 activity) ([6]; hypoxic PAECs): reversed the increase | hypoxic increase in apoptosis [6, 7]: did not reverse

— patent publication US12599592B2, “Therapeutic small molecules for treatment of pulmonary hypertension” (UNIVERSITY OF PITTSBURGH—OF THE COMMONWEALTH SYSTEM OF …, priority 2020, dated 2026)
